In PMC10807816, “Molecular mechanisms and evolutionary robustness of a color switch in proteorhodopsins” (Science Advances, 2024):

Molecular target: T1, GPR (green proteorhodopsin) (uncultured marine gamma proteobacterium EBAC31A08, UniProt Q9F7P4, L105Q)
T1 construct: pET27b(+) NdeI/XhoI, C-terminal HSV tag and His6 tag kept; E. coli C43; Ni-NTA, DDM, DMPC/DMPA liposomes
Assay: solid-state NMR (DNP, CSA, 2D […]/1H/[…]) and UV-Vis
Format: binding
Details: covalent; protonated Schiff base to Lys231; pH 9.0; labelled compound; called BPR

T1 sequence (Q9F7P4 18-249 L105Q): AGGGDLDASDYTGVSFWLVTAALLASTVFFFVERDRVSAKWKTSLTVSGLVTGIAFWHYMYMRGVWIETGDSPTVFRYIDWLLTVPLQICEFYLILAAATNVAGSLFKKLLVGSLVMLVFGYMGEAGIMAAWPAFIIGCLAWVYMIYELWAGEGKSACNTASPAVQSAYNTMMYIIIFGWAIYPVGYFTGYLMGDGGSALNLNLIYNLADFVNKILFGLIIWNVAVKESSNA

`CC1=C(/C=C/C(C)=C/C=C/C(C)=C/C=O)C(C)(C)CCC1` [all-trans retinal] was tested, and the “solid-state NMR (DNP, CSA, 2D 13C/1H/15N) and UV-Vis” value was “Notable chemical shift changes between GPR and BPR have been observed”.
